Values quoted from earlier work, collected in patent US20180028452A1, “ANTIEMETIC EXTENDED RELEASE SOLID DOSAGE FORMS” (RedHill Biopharma Ltd., priority 2013, published 2018).
Where a name gives a salt, the structure may show the parent alone.

Key:
[1] = scale of Pliska et al., J. Chromatog. 216, 79, 1981
[2] = water and normal saline

CC[C@H](C)[C@H](N)C(=O)O [iso-leucine]
hydropathy value (relative hydrophobic character) [1]: 1.83

N[C@@H](CC(=O)O)C(=O)O [aspartic acid]
hydropathy value (relative hydrophobic character) [1]: −2.15

NCC(=O)O [glycine]
hydropathy value (relative hydrophobic character) [1]: 0

Cc1nccn1CC1CCc2c(c3ccccc3n2C)C1=O (racemic) [Ondansetron HCl dihydrate, Ondansetron hydrochloride]
solubility [2]: soluble in water and normal saline
